Entries after “also recorded” stand apart in the source; their conditions may differ.
Assays:
Assay type in all cases: biochemical
SOD = test: Testing of structural analogs for inhibition of SOD aggregation; conditions: Example 2, compounds of FIG. 2
Protocol: (§1) Aggregation assays for screening were prepared by adding a stock solution of compound to a protein solution (final concentrations: 100 μM compound, 50 μM protein). Following a 15 minute preincubation period at 37° C., 5 mM EDTA was added to initiate aggregation. Aliquots were periodically removed and analyzed for the amount of SOD-1 dimer present. This value correlated in all cases with the appearance of oligomers by gel filtration on a Superdex 200™ (3.2/30) gel filtration column (Pharmacia). All chromatography was performed in TBS, pH 7.4 (20 mM Tris, 150 mM NaCl) on a Waters 2690 Alliance HPLC and monitored at 220 and 276 nm. […] Assays in the absence of EDTA were carried as described previously (16). For Apo-A4V experiments, buffers were treated with CHELEX (except those containing EDTA) and experiments were performed in plastic tubes to avoid introduction of contaminating zinc into the Apo-protein.
A structural analysis was performed on the 15 compounds found to be active in the assays described in Example 1 (see FIG. 1). […] Although most of the compounds tested were purchased commercially, two (1,2-di-[6-Mercapto-2H-[1,2,4]triazine-3,5-dione]ethane; and di-{5-[1H-pyrimidine-2,4-dione]methyl}thioether) were synthesized as described in Example 3.

A4V = biological target: T1, A4V (Homo sapiens, UniProt P00441, A5V); test: Guanidinium chloride unfolding of A4V (fluorescence); conditions: 5 μM protein, fluorescence 348 nm
T1 construct: made in house
T1 sequence (P00441 2-154 A5V limits assumed): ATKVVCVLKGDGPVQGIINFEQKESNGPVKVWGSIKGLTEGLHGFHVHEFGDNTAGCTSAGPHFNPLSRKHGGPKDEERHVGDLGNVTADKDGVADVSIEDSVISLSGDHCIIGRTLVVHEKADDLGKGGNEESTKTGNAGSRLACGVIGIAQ
Text: Equilibrium unfolding transition, as a function of GdnCl concentration, was monitored by fluorescence spectroscopy. The fluorescence measurements were done on a Hitachi f-4500 spectrofluorometer in a 1-cm cell connected to a circulation water bath. The excitation and emission wavelengths were fixed at 278 and 348 nm, respectively, after making appropriate corrections for buffer and GdnCl. The slit width was 5 nm for both monochromators. Each measurement was an average of five readings. Protein concentration used for fluorescence experiments was 5 μM. The data were analyzed directly for a two-state (N→U) transition as follows: the raw data for the GdnCl-induced denaturation studies were converted to fractions of the protein in the unfolded state (fu) as a function of GdnCl concentration using the equation: fu=Y0−(Yf+mf[GdnCl.])/(Yu+mu[GdnCl.])−(Yf+mf[GdnCl.]) where Y0 is the observed spectroscopic property, Yf and mf are the […] of the folded state baseline and Yu and mu represent the respective values of the unfolded baseline. The folded fraction was calculated as (fn=1−fu) and the equilibrium constant was determined by Keq=fu/fn. The free energy of unfolding was determined using the equation ΔG=−RT ln(Keq) where T is the temperature in Kelvin and R is the universal gas constant (1.987 cal mol−1 K−1).

A4V/V7F/V148F = biological target: T2, A4V/V7F/V148F (Homo sapiens, UniProt P00441, A5V/V149F/V8F); test: Aggregation of A4V/V7F/V148F (putative binding site disturbed); conditions: binding site disturbed by V7F/V148F
T2 construct: made in house; host or cells: E. coli
T2 sequence (P00441 2-154 A5V/V8F/V149F limits assumed): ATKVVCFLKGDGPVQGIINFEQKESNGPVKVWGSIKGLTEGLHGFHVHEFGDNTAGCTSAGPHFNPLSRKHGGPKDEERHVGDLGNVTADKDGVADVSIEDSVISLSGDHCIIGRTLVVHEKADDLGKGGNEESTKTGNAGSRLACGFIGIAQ
Protocol: as §1
To investigate the effect of partially capping the cavity with hydrophobic moieties, residues V148 and V7, the sidechains of which protruded into the cavity, were mutated to phenylalanine. […] Filling cavities in protein structures with hydrophobic side chains often stabilizes the protein structure (30, 31), lysozyme being a classic example (32).
Three variants of SOD-1, in which the V7F and V148F mutations were introduced into WT, A4V and G93A, were cloned, expressed in E. coli and purified as described previously (15). Each protein was subjected to guanidine chloride (GdnCl) unfolding and fluorescence intensity (348 nm) was monitored at 25° C. WT enzyme was completely unfolded at 3.5 M GdnCl (Cm=3.2 M, where Cm is the midpoint of transition), while A4V was completely unfolded at 1.9 M GdnCl (Cm=1.51 M). […] G93A/V7F/V148F was slightly more resistant to denaturation than G93A. No significant effect of the two V→F mutations on the denaturation of WT (i.e., WT vs. V7F/V148F) could be measured. The V→F mutations stabilized both A4V and G93A against EDTA induced aggregation. […] Similarly, G93A/V7F/V148F aggregated slightly more slowly than G93A.

G85R = biological target: T3, G85R (Homo sapiens, UniProt P00441, G86R); test: EDTA-induced aggregation of G85R
T3 construct: made in house
T3 sequence (P00441 2-154 G86R limits assumed): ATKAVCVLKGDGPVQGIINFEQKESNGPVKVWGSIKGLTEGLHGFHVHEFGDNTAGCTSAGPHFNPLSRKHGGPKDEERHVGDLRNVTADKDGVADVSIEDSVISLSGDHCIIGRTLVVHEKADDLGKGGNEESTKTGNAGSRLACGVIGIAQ
Protocol: as §1

[1] = biological target: T4, A4V, a FALS-linked variant of SOD-1 (Homo sapiens, UniProt P00441, A5V); test: A4V aggregation assay with EDTA (SOD-1 dimer loss by gel filtration); conditions: 100 μM compound, 50 μM protein
T4 construct: made in house
T4 sequence (P00441 2-154 A5V limits assumed): as the sequence (P00441 2-154 A5V limits assumed) above
Protocol: SOD-1 dimer was purified on a Superdex 75™ (16/60) gel filtration column (Pharmacia) to produce starting material for each aggregation experiment. Metal analyses were carried by inductive coupled plasma mass-spectrometry (ICP-MS). WT and G93A were nearly fully metallated, and G85R and A4V were deficient in zinc and copper, respectively.
as §1

G93A = biological target: T5, G93A (Homo sapiens, UniProt P00441, G94A); test: EDTA-induced aggregation of G93A
T5 construct: made in house
T5 sequence (P00441 2-154 G94A limits assumed): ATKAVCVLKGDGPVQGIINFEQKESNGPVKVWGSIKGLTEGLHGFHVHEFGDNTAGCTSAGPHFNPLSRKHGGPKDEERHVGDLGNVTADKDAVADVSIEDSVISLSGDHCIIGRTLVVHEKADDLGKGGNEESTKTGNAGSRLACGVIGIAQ
Protocol: as §1

Structure (SMILES)	inhibition of SOD aggregation by structural analogs (SOD)	stabilization of A4V against GdnCl induced unfolding (expressed as ΔG) (A4V)	change in the aggregation rate of A4V/V7F/V148F (A4V/V7F/V148F)	inhibition of G85R aggregation (G85R)	inhibition of A4V aggregation (in words) [1]	inhibition of G93A aggregation (G93A)
O=c1[nH]c(=O)n(CCn2nc(S)c(=O)[nH]c2=O)nc1S [1,2-di-[6-Mercapto-2H-[1,2,4]triazine-3,5-dione]ethane]	most active					
O=c1[nH]nc(SCc2ccc(Cl)cc2)c(=O)[nH]1 [Compound 3, 6-[(4-chlorobenzyl)thio]1,2,4-triazine-3,5(2H,4H)-dione]		stabilized A4V nearly to WT levels	no appreciable change	among the best inhibitors	most potent A4V aggregation inhibitors; also recorded: among the most potent aggregation inhibitors	among the best inhibitors
O=c1[nH]cc(CSCc2c[nH]c(=O)[nH]c2=O)c(=O)[nH]1 [di-{5-[1H-pyrimidine-2,4-dione]methyl}thioether]	most active					
O=c1[nH]nc(SCc2ccc(F)cc2)c(=O)[nH]1 [Compound 7, 6-[(4-fluorobenzyl)thio]-1,2,4-triazine-3,5(2H,4H)-dione]		stabilized A4V nearly to WT levels	no appreciable change	among the best inhibitors	most potent A4V aggregation inhibitors; also recorded: among the most potent aggregation inhibitors	among the best inhibitors
O=c1[nH]cc(CSc2n[nH]c(=O)[nH]c2=O)c(=O)[nH]1 [6-{[(2,4-dioxo-1,2,3,4-tetrahydropyrimidin-5-yl)methyl]thio}-1,2,4-triazine-3,5(2H,4H)-dione]	most active					
Oc1ccc(Br)cc1/C=N/c1ccc(F)cc1 [Compound 4, 4-bromo-2-{(E)-[(4-fluorophenyl)imino]methyl}phenol]		stabilized A4V nearly to WT levels	no appreciable change	among the best inhibitors	most potent A4V aggregation inhibitors; also recorded: among the most potent aggregation inhibitors	among the best inhibitors
O=c1cc(Nc2ccc(Cl)cc2)[nH]c(=O)[nH]1 [Compound 2, 6-[(4-chlorophenyl)amino]pyrimidine-2,4(1H,4H)-dione]		stabilized A4V nearly to WT levels; also recorded: stabilizes the A4V dimer to an extent comparable to the difference in stability between the invariably lethal A4V and WT SOD-1	no appreciable change	among the best inhibitors	most potent A4V aggregation inhibitors; also recorded: among the most potent aggregation inhibitors	among the best inhibitors
